One data set deals with PGE2. The data set is described as follows: PGE2 immunoassay of conditioned medium, BxPC-3 and MIA PaCa-2. The format is cell-based, human. The note with it: 24 h. On the procedure:
The conditioned medium was collected and analyzed for PGE2 concentration, according to the manufacture's protocol, using a PGE2 high sensitivity immunoassay kit purchased from R & D Systems, Minneapolis, Minn. The optical density was measured at 450 nm and the concentration of PGE2 was calculated from the standard curve.

The nature of data set [1]: Pancreas tissue pharmacokinetics after single intragastric dose. The format is in vivo, mice. On the procedure:
The mice were randomly divided into two groups of 18 mice apiece. […] Blood and tissue samples were harvested before initiation of treatment (0 hr) and at 1, 2, 4, 6, 8, 12, 16, and 24 hrs following the intragastric administration. At each time point, two mice were euthanized and ˜200 μL blood was collected by cardiac puncture, and tissues (liver, lung, kidney, heart, pancreas, and colon) were harvested, washed free of blood with PBS, blotted dry, weighed, and stored at −80° C. until analysis. The collected blood samples were allowed to clot, centrifuged, and then the serum was separated and stored at −80° C. until analysis.
The tissue samples were homogenized in 5 volumes of ice-cold normal saline. Aliquots of serum or tissue homogenate were spiked with ethyl acetate (containing 50 ng/ml zilueton as an internal standard) as follows: 100 μL serum/500 μL ethyl acetate and 500 μL tissue homogenate/1 ml ethyl acetate. The mixtures were vortex-mixed and centrifuged at 14,000 rpm for 5 minutes. The top layer was separated and dried under a stream of nitrogen in a water bath at about 50° C. The residue was reconstituted in 100 μL of methanol/water containing 0.45% formic acid (70:30 v/v) and then centrifuged again.
The supernatant (100 μL) was injected into the HPLC equipment, and separated on a Waters Xterra MS column (2.1×50 mm, […] i.d.) With a mobile phase consisting of methanol/water containing 0.45% formic acid (70:30 v/v) at a flow rate of 0.2 ml/min. The column effluent was monitored using a Waters Quattro Micro™ triple quadrapole mass-spectrometric detector equipped with an electrospray ionization source. (Waters Corporation, Milford, Mass.). […] The internal standard zilueton was monitored in the positive mode at the transition of m/z, 237.1→160.8. […] The within-day and between-day precision and accuracies of the assay was <15%.
Serum pharmacokinetic parameters were estimated using non-compartmental analysis with WinNonlin software version 4.2 (Pharsight Corporation, Cary, N.C.). The maximum serum concentration (Cmax) and the time of occurrence for maximum concentration (Tmax) were obtained by visual inspection of the serum concentration-time curve after drug administration. The total area under the serum concentration-time curve from time zero to the last measurable time point ([…]) was calculated using the linear and logarithmic trapezoidal method for ascending and descending serum concentrations, respectively.

In data set [2] the test system is COX-2, E-cadherin, PTEN, pAkt, tropomyosin expression. The data set is described as follows: Western blot of COX-2, E-cadherin, PTEN, pAkt, tropomyosin. The note with it: BxPC-3 cell line only, 72 h. The format is cell-based, human. In general terms: A western blot detects proteins with antibodies after separation by electrophoresis.
For data set [3], the system named is NF-κB DNA binding activity. The experiment in a line: EMSA for NF-κB DNA binding activity, three PC lines. It counts as cell-based, human. The settings on record: 72 h; CDF/CUR 1 or 4 μMol/L, GEM 10 nMol/L. On the procedure:
The DNA binding activity of the nuclear transcription factor, NF-κB was assessed in the BxPC-3, MIAPaCa-E, and MIAPaCa-M cell lines by EMSA. […] The cells were lysed in 400 μl of lysis buffer and the reaction was set up as described earlier in Ali, et al., id. The gel was scanned using an Odyssey Infrared Imaging System, (LI-COR, Inc., Lincoln, Nebr.). Equal protein loading was ensured by immunoblotting 10 μg of nuclear protein and probing with anti-retinoblastoma antibody.
For orientation: In EMSA bound probe runs differently from free probe, usually more slowly.

A further data set relates to VEGF. The data set is described as follows: AlphaLISA VEGF secretion. It counts as cell-based, human. The settings on record: 72 h; MIAPaCa-E and MIAPaCa-M. An excerpt:
The effect of CDF on another downstream transcriptional target of NF-κβ, vascular endothelial growth factor (VEGF) secretion, was studied in the three human pancreatic cell lines.
Background: Bead proximity is the source of the signal in Alpha formats.

Data set [4] deals with AsPC-1-GTR and MIAPaCa-2-GTR cells. The data set is described as follows: Clonogenic assay, gemcitabine/tarceva-resistant lines. The settings on record: 4 μmol/L CUR or CDF, 20 nmol/L GEM. The format is cell-based, human.
The subject of data set [5] is pancreatospheres of AsPC-1 cells. The data set is described as follows: Sphere formation assay. The settings on record: AsPC-1, varying concentrations. It counts as cell-based, human. On the procedure:
A sphere formation assay was conducted for 1 week (FIG. 19A) and four weeks (FIG. 19B) to examine the effect of the treating agents on the CSC self-renewal capacity of the PC cell line AsPC-1. […] Therefore, it appears that CDF may cause pancreatospheres to be more sensitive to GEM, and as a result, CDF, or the combination of CDF/GEM, would be useful for targeted killing of CSCs.
Furthermore, pretreatment with CDF improved the outcome.

A further data set deals with CD44 and EpCAM. The data set is described as follows: CD44 and EpCAM immunostaining of pancreatospheres. It counts as cell-based, human. The settings on record: AsPC-1 and AsPC-1-GTR, 7 days. On the procedure:
Single cell suspensions of AsPC-1 and AsPC-1-GTR were plated into sphere formation media as previously described. After 7 days, the pancreatospheres were collected, washed, and fixed. The CSC biomarkers, CD44 and EpCAM, were used for immunostaining and the pancreatospheres were examined with confocal microscopy.

The subject of another data set is MIAPaCa-2 tumors. The experiment in a line: MIAPaCa-2 subcutaneous xenograft tumor model. The settings on record: CDF or CUR 5 mg/mouse/day intragastric 12 days; GEM 1 mg/mouse i.v. x3. The format is in vivo, mice. On the procedure: Female CB17 SCID mice 4 wks old were purchased from Taconic Farms (Germantown, N.Y.). Small fragments of the MIAPaCa-2 xenograft were implanted subcutaneously and bilaterally into mice. […] Tumor measurements and changes in weight were performed and tissue was stored at −70° C. for RNA and protein extraction.

Another data set deals with rabbit 20S proteasome. The data set is described as follows: Chymotrypsin-like activity of purified 20S proteasome (Suc-LLVY-AMC). It counts as biochemical. An excerpt: Purified rabbit 20S proteasome and a fluorogenic substrate Suc-LLVY-AMC for the proteasomal chymotrypsin-like activity were obtained from Calbiochem Inc. (San Diego, Calif.).
The mark [6] stands for this setting: female, ICR-SCID, mouse, po, pancreas, 250 mg/kg single intragastric.
[7] abbreviates: pancreas, 250 mg/kg single intragastric.

As to `COc1cc(/C=C/C(=O)C(=Cc2ccc(F)c(F)c2)C(=O)/C=C/c2ccc(O)c(OC)c2)ccc1O` [CDF, (1E,6E)-1,7-bis(4-hydroxy-3-methoxyphenyl)hepta-1,6-diene{4(3,4 difluorobenzaldehyde)}-3,5-dione], the “PGE2 level in conditioned medium” value in the data set on PGE2 (BxPC-3 cells, 1 μM) is given as “significant decrease in PGE2 level”. For the same compound, the “PGE2 level in conditioned medium” value in the data set on PGE2 (MIAPaCa-2 cells, 4 μM) was “significant decrease in PGE2 levels”. In [1] (250 mg/kg), the “AUClast in pancreas tissue relative to CUR” value is recorded as 10.6 times and the “Cmax in pancreas tissue relative to CUR” value came out at 4.3 times. Further, in data set [1] (female, ICR-SCID, mouse, pancreas / serum, oral, 250 mg/kg, at 8 h, read-out: Cmax in pancreas relative to serum), the Kp at 8 h was found to be 44.5. Moreover, in data set [1] (setting [6]), the Cmax (usually the peak of the concentration-time curve) worked out at 9350 ng/g and the Tmax – broadly, the time from dosing to the highest level – is 8 h. In [1] (setting [7]), this compound yielded an AUClast of 36.56 µg·h/g, a Clast of 0.04 µg/g and a Tlast of 12.0 h. Also, the E-cadherin expression entry in data set [2] is given as “significantly enhanced”. In addition, the “NF-κβ DNA binding activity” value in data set [3] is reported as “significant inhibition in the DNA binding activity of NF-κβ in all three cell lines”. Further, in the data set on VEGF, the “secreted levels of VEGF” value is recorded as “significant inhibition of secreted levels of VEGF”. In addition, in data set [4], the reduction of clonogenicity is given as 80%. Further, in data set [5], the “2nd passage of pancreatospheres” value is “inhibited 2nd passage of pancreatospheres in a dose-dependent manner”. The “expression of CD44 and EpCAM in pancreatospheres” value with CD44 and EpCAM was “decreased the expression of CD44 and EpCAM in pancreatospheres”. Besides, the tumor growth result in the data set on MIAPaCa-2 tumors is on record as “significantly inhibited tumor growth”.
The compound `COc1cc(/C=C/C(=O)CC(=O)/C=C/c2ccc(O)c(OC)c2)ccc1O` [CUR, (1E,6E)-1,7-bis(4-hydroxy-3-methoxyphenyl)hepta-1,6-diene-3,5-dione, reference compound] came in with a proteasome inhibition with rabbit 20S proteasome (10 μM) of 70%. For the same compound, in the data set with rabbit 20S proteasome (1-10 μM, 2 h 37° C.), the “inhibition of chymotrypsin-like activity of the proteasome” value is reported as 20-70%. For the same compound, the “PGE2 level in conditioned medium” value in the data set with PGE2 (MIAPaCa-2 cells, 4 μM) is on record as “significant decrease in PGE2 levels”. In data set [1] (setting [7]), this compound yielded an AUClast of 3.46 µg·h/g, a Clast of 0.20 µg/g and a Tlast of 16.0 h. Further, in data set [2], the E-cadherin expression result is “significantly enhanced”. Further, the “NF-κβ DNA binding activity” value in data set [3] is “much lower effects on NF-κβ DNA binding activity than the CDF-treated cells”.

The values are drawn from patent US20140303109A1 (priority 2010, published 2014).
